Source: publication PMC5344255, “Design, Synthesis and Biochemical Evaluation of Novel Selective Estrogen Receptor Ligand Conjugates Incorporating an Endoxifen-Combretastatin Hybrid Scaffold” (Biomedicines, 2016)
Several values for one entry are separate records, joined by “and”; a condition that tells them apart may be missing. Equal entries are not always repeated. Marks after values point to notes of the source that are not given here.

How the values were obtained:
M14 = assay: NCI 60 cell line screen; assay type: cell-based, human; settings: M14 (Melanoma); one-dose 10 µM
HOP-92 = assay: NCI 60 cell line screen; assay type: cell-based, human; settings: HOP-92 (Non-Small Cell Lung Cancer)
HCT-116 = assay: NCI 60 cell line screen; assay type: cell-based, human; settings: HCT-116 (Colon Cancer)
MDA-MB-231/ATCC = assay: NCI 60 cell line screen; assay type: cell-based, human; settings: MDA-MB-231/ATCC (Breast Cancer); one-dose 10 µM
786-0 = assay: NCI 60 cell line screen; assay type: cell-based, human; settings: 786-0 (Renal Cancer); one-dose 10 µM
SF-268 = assay: NCI 60 cell line screen; assay type: cell-based, human; settings: SF-268 (CNS Cancer)
NCI-H552 = assay: NCI 60 cell line screen; assay type: cell-based, human; settings: NCI-H552 (Non-Small Cell Lung Cancer)
[1] = tested on: MDA-MB-231 human breast cancer cells; assay: Lactate dehydrogenase (LDH) cytotoxicity assay in MDA-MB-231; assay type: cell-based; settings: % cell lysis at 10 μM
How it was run: (§1)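 Cells seeded at 1 × 10^4 per well and grown 24 h, then dosed with compounds over 1 nM–50 μM. Cell lysis quantified as released cytoplasmic LDH using the CytoTox 96 nonradioactive cytotoxicity assay.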

UACC-62 = assay: NCI 60 cell line screen; assay type: cell-based, human; settings: UACC-62 (Melanoma); one-dose 10 µM
SK-MEL-5 = assay: NCI 60 cell line screen; assay type: cell-based
MOLT-4 = assay: NCI 60 cell line screen; assay type: cell-based, human; settings: MOLT-4 (Leukemia)
KM12 = assay: NCI 60 cell line screen; assay type: cell-based, human; settings: KM12 (Colon Cancer)
MCF-7 = assay: NCI 60 cell line screen; assay type: cell-based; settings: Homo sapiens
UO-31 = assay: NCI 60 cell line screen; assay type: cell-based, human; settings: UO-31 (Renal Cancer); one-dose 10 µM
NCI-H332M = assay: NCI 60 cell line screen; assay type: cell-based, human; settings: NCI-H332M (Non-Small Cell Lung Cancer)
LOX IMV1 = assay: NCI 60 cell line screen; assay type: cell-based, human; settings: LOX IMV1 (Melanoma); one-dose 10 µM
[2] = tested on: MCF-7 human breast cancer cells; assay: Lactate dehydrogenase (LDH) cytotoxicity assay in MCF-7; assay type: cell-based; settings: % cell lysis at 10 µM
How it was run: as §1

HT29 = assay: NCI 60 cell line screen; assay type: cell-based, human; settings: HT29 (Colon Cancer)
UACC-257 = assay: NCI 60 cell line screen; assay type: cell-based, human; settings: UACC-257 (Melanoma); one-dose 10 µM
MDA-MB-468 = assay: NCI 60 cell line screen; assay type: cell-based, human; settings: MDA-MB-468 (Breast Cancer); one-dose 10 µM
CCRF-CEM = assay: NCI 60 cell line screen; assay type: cell-based, human; settings: CCRF-CEM (Leukemia)
[3] = tested on: MDA-MB-231 human breast cancer cells; assay: MTT assay for antiproliferative effects in MDA-MB-231; assay type: cell-based; settings: MDA-MB-231, MTT assay
HCT-2998 = assay: NCI 60 cell line screen; assay type: cell-based, human; settings: HCT-2998 (Colon Cancer)
SNB-19 = assay: NCI 60 cell line screen; assay type: cell-based, human; settings: SNB-19 (CNS Cancer)
HCT-15 = assay: NCI 60 cell line screen; assay type: cell-based, human; settings: HCT-15 (Colon Cancer)
NCI-H23 = assay: NCI 60 cell line screen; assay type: cell-based
COLO 205 = assay: NCI 60 cell line screen; assay type: cell-based
[4] = Homo sapiens, 60 cell, five-dose screen

Question: With `CCC(=C(c1ccc(O)cc1)c1ccc(OCCN(C)C(=O)/C(=C/c2ccc(OC)c(O)c2)c2cc(OC)c(OC)c(OC)c2)cc1)c1ccc(O)cc1` (mixture of isomers) [Compound 28, (E)-N-(2-{4-[(E/Z)-1,2-Bis-(4-hydroxyphenyl)but-1-enyl]-phenoxy}ethyl)-3-(3-hydroxy-4-methoxyphenyl)-N-methyl-2-(3,4,5-trimethoxyphenyl)acrylamide] as the compound, how does the “GI% (10^−5 M)” value (M14) read?
Answer: The value was 1.68%.

Question: And the “GI% (10^−5 M)” value (HOP-92; one-dose 10 µM)?
Answer: Its value is 86.19%.

Question: What about the GI50 (HOP-92; Homo sapiens, five-dose screen) of the same compound?
Answer: The GI50 was 764 nM.

Question: What about the “GI% (10^−5 M)” value (HCT-116; one-dose 10 µM) of the same compound?
Answer: Its value is 98% and 97.57%.

Question: And the GI50 (HCT-116; Homo sapiens, five-dose screen)?
Answer: The GI50 was 1800 nM.

Question: What about the “GI% (10^−5 M)” value (MDA-MB-231/ATCC) of the same compound?
Answer: Its value is 1.61%.

Question: And the “GI% (10^−5 M)” value (786-0)?
Answer: Its value is 1.91%.

Question: And the GI50 (SF-268; Homo sapiens, five-dose screen)?
Answer: The GI50 was 1690 nM.

Question: What about the “GI% (10^−5 M)” value (SF-268; one-dose 10 µM) of the same compound?
Answer: The value was 84.22%.

Question: And the GI50 (NCI-H552; [4])?
Answer: Its GI50 is 1390 nM.

Question: What about the “GI% (10^−5 M)” value (NCI-H552; one-dose 10 µM) of the same compound?
Answer: The value was 100 ^d,h %.

Question: What about the “% Cell Death at 10 μM” value [1] of the same compound?
Answer: The value was 15%.

Question: What about the “GI% (10^−5 M)” value (UACC-62) of the same compound?
Answer: The value was 0.922%.

Question: What about the CC50 (SK-MEL-5; Homo sapiens, five-dose screen, read-out: LC50 (the source's name)) of the same compound?
Answer: Its CC50 is 34500 nM.

Question: And the lethality (SK-MEL-5; one-dose screen 10 μM)?
Answer: The lethality was 60%.

Question: What about the GI50 (MOLT-4; Homo sapiens, five-dose screen) of the same compound?
Answer: The GI50 was 1520 nM.

Question: What about the “GI% (10^−5 M)” value (MOLT-4; one-dose 10 µM) of the same compound?
Answer: The value was 64.31%.

Question: And the GI50 (KM12; Homo sapiens, five-dose screen)?
Answer: The GI50 was 1260 nM.

Question: And the “GI% (10^−5 M)” value (KM12; one-dose 10 µM)?
Answer: The value was 100 ^d,m %.

Question: And the IC50 (MCF-7; MCF7, read-out: GI50 (IC50))?
Answer: The IC50 was 9.5 nM.

Question: And the CC50 (MCF-7; MCF7, MCF-7, five-dose screen, read-out: LC50 (the source's name))?
Answer: Its CC50 is > 50000 nM.

Question: What about the “GI% (10^−5 M)” value (UO-31) of the same compound?
Answer: Its value is 2.66%.

Question: And the GI50 (NCI-H332M; Homo sapiens, five-dose screen)?
Answer: Its GI50 is 2020 nM.

Question: And the “GI% (10^−5 M)” value (NCI-H332M; one-dose 10 µM)?
Answer: The value was 81.7%.

Question: And the “GI% (10^−5 M)” value (LOX IMV1)?
Answer: The value was 1.55%.

Question: What about the “% Cell Death at 10 μM” value [2] of the same compound?
Answer: The value was 17%.

Question: And the “GI% (10^−5 M)” value (HT29; one-dose 10 µM)?
Answer: Its value is 100 ^d,l %.

Question: What about the GI50 (HT29; Homo sapiens, HT-29, five-dose screen) of the same compound?
Answer: Its GI50 is 1160 nM.

Question: What about the “GI% (10^−5 M)” value (UACC-257) of the same compound?
Answer: Its value is 2.83%.

Question: And the “GI% (10^−5 M)” value (MDA-MB-468)?
Answer: The value was 1.12%.

Question: What about the “GI% (10^−5 M)” value (CCRF-CEM; one-dose 10 µM) of the same compound?
Answer: Its value is 72.48%.

Question: And the GI50 (CCRF-CEM; Homo sapiens, five-dose screen)?
Answer: Its GI50 is 1770 nM.

Question: And the IC50 [3]?
Answer: Its IC50 is 2480 nM.

Question: And the “GI% (10^−5 M)” value (HCT-2998; one-dose 10 µM)?
Answer: Its value is 100 ^d,j %.

Question: And the GI50 (HCT-2998; [4])?
Answer: Its GI50 is 1250 nM.

Question: What about the GI50 (SNB-19; Homo sapiens, five-dose screen) of the same compound?
Answer: The GI50 was 1720 nM.

Question: And the “GI% (10^−5 M)” value (SNB-19; one-dose 10 µM)?
Answer: Its value is 81.49%.

Question: What about the “GI% (10^−5 M)” value (HCT-15; one-dose 10 µM) of the same compound?
Answer: The value was 100 ^d,k %.

Question: What about the GI50 (HCT-15; Homo sapiens, five-dose screen) of the same compound?
Answer: The GI50 was 1530 nM.

Question: And the GI50 (NCI-H23; Homo sapiens, NCI-H23)?
Answer: The GI50 was 2190 nM.

Question: And the LC50 (NCI-H23; Homo sapiens, NCI-H23, five-dose screen)?
Answer: The LC50 was 48900 nM.

Question: And the “GI% (10^−5 M)” value (NCI-H23; NCI-H23 (Non-Small Cell Lung Cancer), one-dose 10 µM)?
Answer: The value was 97% and 96.76%.

Question: And the “GI% (10^−5 M)” value (COLO 205; COLO 205 (Colon Cancer), one-dose 10 µM)?
Answer: Its value is 100 ^d,i %.

Question: What about the GI50 (COLO 205; Homo sapiens, COLO 205) of the same compound?
Answer: The GI50 was 2150 nM.

Question: And the LC50 (COLO 205; Homo sapiens, COLO 205, five-dose screen)?
Answer: The LC50 was 26200 nM.
